# Read-outs that look alike come from different tables or passages of the source.
# Experiments:
# Format in all cases: cell-based
# Botrytis cinerea = experiment: Fungicidal action against Botrytis cinerea (gray mould), microtiter growth inhibition
# Protocol: Example B2: Fungicidal Action Against Botrytis cinerea (Gray Mould)
# (§1) Conidia of the fungus from cryogenic storage are directly mixed into nutrient broth (PDB potato dextrose broth). After placing a (DMSO) solution of the test compounds into a microtiter plate (96-well format) the nutrient broth containing the fungal spores is added. The test plates are incubated at 24° C. and the inhibition of growth is evaluated after 4 days. The expected fungicidal action is calculated according to the Colby method.
# Alternaria solani = experiment: Fungicidal action against Alternaria solani (early blight tomato/potato), microtiter growth inhibition
# Protocol: Example B4: Fungicidal Action Against Alternaria solani (Early Blight Tomato/Potato)
# as §1, with “after 3” for “after 4”
# Pyrenophora teres = experiment: Fungicidal action against Pyrenophora teres (net blotch), microtiter growth inhibition; conditions: for inhibition at 0.0625 ppm / inhibition at 0.125 ppm / inhibition at 0.5 ppm / inhibition at 1 ppm: read-out: % activity; for % activity: alone
# Protocol: Example B6: Fungicidal Action Against Pyrenophora teres (Net Blotch)
# as §1
# [1] = tested on: Pseudocercosporella herpotrichoides (syn. Tapesia yallundae); experiment: Fungicidal action against Pseudocercosporella herpotrichoides (eye spot of cereals), microtiter growth inhibition
# Protocol: Example B5: Funicidal Action Against Pseudocercosporella herpotrichoides (Syn. Tapesia yallundae), Eye Spot of Cereals
# as §1
# Septoria tritici = experiment: Fungicidal action against Septoria tritici (leaf blotch), microtiter growth inhibition; conditions: for % activity: alone
# Protocol: Example B3: Fungicidal Action Against Septoria tritici (Leaf Blotch)
# as §1
# [2] = tested on: Cercospora arachidicola (syn. Mycosphaerella arachidis); experiment: Fungicidal action against Cercospora arachidicola (brown leaf spot of groundnut), microtiter growth inhibition; conditions: Mycosphaerella arachidis
# Protocol: Example B8: Fungicidal Action Against Cercospora arachidicola (Syn. Mycosphaerella arachidis), Brown Leaf Spot of Groundnut (Peanut)
# as §1, with “24 C” for “24° C.”, “7” for “4”, “days.” for “days. The expected fungicidal action is calculated according to the Colby method.”
# Gaeumannomyces graminis = experiment: Fungicidal action against Gaeumannomyces graminis (take-all of cereals), microtiter growth inhibition; conditions: Gaeumannomyces graminis
# Protocol: Example B7: Fungicidal Action Against Gaeumannomyces graminis (Take-all of Cereals)
# as §1, with “Mycelial fragments” for “Conidia”, “24 C” for “24° C.”, “days.” for “days. The expected fungicidal action is calculated according to the Colby method.”
# [3] = Pyrenophora teres, compound alone
# [4] = Zymoseptoria tritici, read-out: % activity
# [5] = Botrytis cinerea, read-out: % activity
# [6] = Oculimacula yallundae, read-out: % activity
# [7] = compound alone, 0.0625 ppm, read-out: % activity
structure (smiles),measurement,setting,value
"CC(Cc1ccc(C(C)(C)C)cc1)CN1CCCCC1 (centres unmarked) [Fenpropidin, fenpropidin]",inhibition at 0.5 ppm,"Botrytis cinerea; Botrytis cinerea, 0.5000 ppm, alone",0%
same,inhibition at 1 ppm,"Botrytis cinerea; Botrytis cinerea, 1.0000 ppm, alone",0%
same,inhibition at 2 ppm,"Botrytis cinerea; Botrytis cinerea, 2.0000 ppm, alone",0%
same,inhibition at 0.125 ppm,"Alternaria solani; Alternaria solani, 0.1250 ppm, alone",0%
same,inhibition at 0.25 ppm,"Alternaria solani; Alternaria solani, 0.2500 ppm, alone, read-out: % activity",0%
same,inhibition at 0.5 ppm,"Alternaria solani; Alternaria solani, 0.5000 ppm, alone, read-out: % activity",0%
same,inhibition at 1 ppm,"Alternaria solani; Alternaria solani, 1.0000 ppm, alone",0%
same,inhibition at 0.0625 ppm,"Pyrenophora teres; Pyrenophora teres, compound alone, 0.0625 ppm",0%
same,inhibition at 0.125 ppm,"Pyrenophora teres; Pyrenophora teres, compound alone, 0.1250 ppm",0%
same,inhibition at 0.25 ppm,"Pyrenophora teres; Pyrenophora teres, compound alone, 0.2500 ppm",0%
same,inhibition at 0.5 ppm,"Pyrenophora teres; Pyrenophora teres, compound alone, 0.5000 ppm",0%
same,inhibition at 2 ppm,Pyrenophora teres; [3],0%
same,inhibition at 0.0156 ppm,"[1]; Oculimacula yallundae, 0.0156 ppm, alone, read-out: % activity",0%
same,inhibition at 0.0313 ppm,"[1]; Oculimacula yallundae, 0.0313 ppm, alone",0%
same,inhibition at 0.0625 ppm,"[1]; Oculimacula yallundae, 0.0625 ppm, alone",0%
same,inhibition at 0.125 ppm,"[1]; Oculimacula yallundae, 0.1250 ppm, alone",0%
same,inhibition at 0.25 ppm,"[1]; Oculimacula yallundae, 0.2500 ppm, alone, read-out: % activity",0%
"N#Cc1c[nH]cc1-c1cccc2c1OC(F)(F)O2 [Fludioxonil, fludioxonil]",inhibition at 0.0625 ppm,Septoria tritici; [4],0%
same,inhibition at 0.125 ppm,Septoria tritici; [4],0%
same,inhibition at 0.0313 ppm,Botrytis cinerea; [5],0%
same,inhibition at 0.0625 ppm,Botrytis cinerea; [5],20%
same,inhibition at 0.125 ppm,Botrytis cinerea; [5],90%
same,inhibition at 0.0078 ppm,"Alternaria solani; Alternaria solani, read-out: % activity, 0.0078 ppm, alone",0%
same,inhibition at 0.0156 ppm,"Alternaria solani; Alternaria solani, read-out: % activity, 0.0156 ppm, alone",0%
same,inhibition at 0.0313 ppm,"Alternaria solani; Alternaria solani, read-out: % activity, 0.0313 ppm, alone",0%
same,inhibition at 0.0625 ppm,"Alternaria solani; Alternaria solani, read-out: % activity, 0.0625 ppm, alone",20%
same,inhibition at 0.25 ppm,"Alternaria solani; Alternaria solani, read-out: % activity, 0.2500 ppm, alone",50%
same,inhibition at 0.5 ppm,"Alternaria solani; Alternaria solani, read-out: % activity, 0.5000 ppm, alone",70%
same,inhibition at 0.0625 ppm,Pyrenophora teres; Pyrenophora teres,20%
same,inhibition at 0.125 ppm,Pyrenophora teres; Pyrenophora teres,70%
same,inhibition at 0.0078 ppm,[1]; [6],0%
same,inhibition at 0.0156 ppm,[1]; [6],0%
same,inhibition at 0.25 ppm,[1]; [6],20%
same,inhibition at 0.5 ppm,[1]; [6],20%
same,inhibition at 1 ppm,[1]; [6],20%
same,inhibition at 2 ppm,[1]; [6],20%
"C#CCOc1ccc(CCNC(=O)C(OCC#C)c2ccc(Cl)cc2)cc1OC (centres unmarked) [Mandipropamid, mandipropamid]",inhibition at 0.125 ppm,Septoria tritici; [4],0%
same,inhibition at 0.25 ppm,Septoria tritici; [4],0%
same,inhibition at 0.5 ppm,Septoria tritici; [4],0%
same,inhibition at 0.5 ppm,Pyrenophora teres; Pyrenophora teres,0%
same,inhibition at 1 ppm,Pyrenophora teres; Pyrenophora teres,0%
same,inhibition at 0.0039 ppm,[2]; read-out: % activity,0%
same,inhibition at 0.0078 ppm,[2]; read-out: % activity,0%
same,inhibition at 0.0039 ppm,Gaeumannomyces graminis; read-out: % activity,0%
same,inhibition at 0.0078 ppm,Gaeumannomyces graminis; read-out: % activity,0%
same,inhibition at 0.0313 ppm,Gaeumannomyces graminis; read-out: % activity,0%
same,inhibition at 0.0625 ppm,Gaeumannomyces graminis; read-out: % activity,0%
"CO/C=C(/C(=O)OC)c1ccccc1COc1cccc(C(F)(F)F)n1 [Picoxystrobin, picoxystrobin]",% activity,Septoria tritici; 0.0156 ppm,20%
same,% activity,Septoria tritici; 0.0313 ppm,70%
same,% activity,"Botrytis cinerea; 0.0625 ppm, alone",0%
same,% activity,"Botrytis cinerea; 0.1250 ppm, alone",0%
same,% activity,"Botrytis cinerea; 0.2500 ppm, alone",0%
same,% activity,"Botrytis cinerea; 0.5000 ppm, alone",0%
same,% activity,"Botrytis cinerea; 1.0000 ppm, alone",0%
same,% activity,"Botrytis cinerea; 2.0000 ppm, alone",0%
same,% activity,"Alternaria solani; 0.0078 ppm, alone",0%
same,% activity,"Alternaria solani; 0.0156 ppm, alone",20%
same,% activity,"Alternaria solani; 0.0313 ppm, alone",20%
same,% activity,"Alternaria solani; 0.0625 ppm, alone",50%
same,% activity,"Alternaria solani; 0.1250 ppm, alone",50%
same,% activity,"Alternaria solani; 0.2500 ppm, alone",50%
same,% activity,"Alternaria solani; 0.5000 ppm, alone",50%
same,% activity,"Alternaria solani; 2.0000 ppm, alone",50%
same,% activity,Pyrenophora teres; 0.0313 ppm,50%
same,% activity,Pyrenophora teres; 0.0625 ppm,70%
same,% activity,"[1]; 0.0078 ppm, alone",0%
same,% activity,"[1]; 0.0156 ppm, alone",20%
same,% activity,"[1]; 0.0313 ppm, alone",50%
same,% activity,"[1]; 0.0625 ppm, alone",50%
same,% activity,"[1]; 0.1250 ppm, alone",50%
same,% activity,"[1]; 0.2500 ppm, alone",50%
same,% activity,"[1]; 0.5000 ppm, alone",50%
same,% activity,"[1]; 1.0000 ppm, alone",70%
CCCC1COC(Cn2cncn2)(c2ccc(Cl)cc2Cl)O1 (centres unmarked) [Propiconazole],inhibition at 1 ppm,"Pyrenophora teres; Pyrenophora teres, compound alone, 1.0000 ppm",20%
same,inhibition at 2 ppm,Pyrenophora teres; [3],50%
same,inhibition at 0.0313 ppm,"[2]; compound alone, 0.0313 ppm",20%
same,inhibition at 0.0625 ppm,[2]; compound alone,70%
same,inhibition at 0.125 ppm,"[2]; compound alone, 0.1250 ppm",90%
same,inhibition at 0.0039 ppm,"Gaeumannomyces graminis; compound alone, 0.0039 ppm, read-out: % activity",0%
same,inhibition at 0.0078 ppm,"Gaeumannomyces graminis; compound alone, 0.0078 ppm, read-out: % activity",0%
same,inhibition at 0.0625 ppm,Gaeumannomyces graminis; [7],0%
OC(Cc1ccccc1Cl)(Cn1nc[nH]c1=S)C1(Cl)CC1 (centres unmarked) [Prothioconazole],inhibition at 0.0625 ppm,[2]; compound alone,70%
same,inhibition at 0.0625 ppm,Gaeumannomyces graminis; [7],50%
same,inhibition at 0.25 ppm,"Gaeumannomyces graminis; compound alone, 0.2500 ppm",90%
same,inhibition at 0.5 ppm,"Gaeumannomyces graminis; compound alone, 0.5000 ppm",90%
CC(C)(C)C(O)(CCc1ccc(Cl)cc1)Cn1cncn1 (centres unmarked) [Tebuconazole],inhibition at 0.125 ppm,"Gaeumannomyces graminis; compound alone, 0.1250 ppm",50%

# From patent US10143201B2, “Fungicidal compositions” (Syngenta Crop Protection LLC, priority 2007, dated 2018)
